{"source": "paper PMC6240685", "about": "“Strong Inhibitory Effect, Low Cytotoxicity and High Plasma Stability of Steroidal Inhibitors of N-Methyl-D-Aspartate Receptors With C-3 Amide Structural Motif” (Frontiers in Pharmacology, 2018)", "key": {"[1]": {"biological_target": "T1, GluN1/GluN2B receptors (Rattus norvegicus, UniProt P35439+Q00960)", "T1 construct": "expressed in transfected cells; host or cells: HEK293", "T1 sequence (Q00960 27-1482, other chains not shown)": "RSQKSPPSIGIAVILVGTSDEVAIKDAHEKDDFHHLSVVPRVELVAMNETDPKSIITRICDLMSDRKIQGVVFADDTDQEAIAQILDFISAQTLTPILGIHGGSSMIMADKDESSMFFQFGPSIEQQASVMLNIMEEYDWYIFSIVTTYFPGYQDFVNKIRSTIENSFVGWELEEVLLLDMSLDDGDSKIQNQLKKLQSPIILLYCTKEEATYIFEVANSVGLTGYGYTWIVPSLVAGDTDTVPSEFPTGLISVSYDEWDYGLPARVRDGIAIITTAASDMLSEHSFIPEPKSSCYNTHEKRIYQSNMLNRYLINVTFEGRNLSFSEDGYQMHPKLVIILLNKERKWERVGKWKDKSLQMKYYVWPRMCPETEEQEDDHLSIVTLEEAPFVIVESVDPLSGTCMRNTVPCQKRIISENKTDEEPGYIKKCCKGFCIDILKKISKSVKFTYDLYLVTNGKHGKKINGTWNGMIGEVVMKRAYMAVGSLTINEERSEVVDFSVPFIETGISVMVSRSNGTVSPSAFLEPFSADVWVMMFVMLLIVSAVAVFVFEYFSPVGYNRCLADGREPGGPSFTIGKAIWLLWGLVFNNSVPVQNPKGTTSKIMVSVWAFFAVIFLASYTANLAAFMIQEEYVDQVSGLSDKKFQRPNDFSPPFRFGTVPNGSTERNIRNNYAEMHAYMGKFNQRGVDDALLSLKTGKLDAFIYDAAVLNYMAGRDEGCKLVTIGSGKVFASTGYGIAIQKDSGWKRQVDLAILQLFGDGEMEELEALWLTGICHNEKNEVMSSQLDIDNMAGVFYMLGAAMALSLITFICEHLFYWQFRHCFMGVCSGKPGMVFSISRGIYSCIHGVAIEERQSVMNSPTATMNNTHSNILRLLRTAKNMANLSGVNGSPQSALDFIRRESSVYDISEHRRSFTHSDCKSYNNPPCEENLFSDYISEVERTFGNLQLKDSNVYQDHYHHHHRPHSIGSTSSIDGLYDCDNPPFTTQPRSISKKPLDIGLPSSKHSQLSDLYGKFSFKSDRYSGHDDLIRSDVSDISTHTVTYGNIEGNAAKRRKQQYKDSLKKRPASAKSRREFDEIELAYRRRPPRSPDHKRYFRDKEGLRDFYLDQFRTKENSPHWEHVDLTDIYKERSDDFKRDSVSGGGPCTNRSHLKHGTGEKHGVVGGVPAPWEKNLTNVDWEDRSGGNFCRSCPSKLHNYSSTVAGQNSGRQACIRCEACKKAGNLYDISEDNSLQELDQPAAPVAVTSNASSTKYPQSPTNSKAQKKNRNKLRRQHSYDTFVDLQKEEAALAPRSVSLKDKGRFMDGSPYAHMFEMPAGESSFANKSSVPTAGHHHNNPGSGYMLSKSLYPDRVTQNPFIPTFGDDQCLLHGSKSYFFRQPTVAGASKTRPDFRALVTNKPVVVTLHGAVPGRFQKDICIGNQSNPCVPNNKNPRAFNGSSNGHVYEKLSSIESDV", "test": "Patch-clamp inhibition of glutamate responses of GluN1/GluN2B receptors in transfected HEK293 cells", "format": "cell-based"}, "[2]": {"test": "Plasma stability, human plasma", "format": "in vitro ADME", "settings": "human, plasma", "description": "Then, 37.8 μL of stock solution was added to 1400 μL of human plasma, maintained at 37°C. Aliquots (50 μL) withdrawn at 0, 1, 4, 8, and 24 h were analyzed by HPLC. […] The supernatant was transferred to an autosampler vial and 1 μL was injected onto LC-MS system. The samples were analyzed with an Agilent 1260 HPLC (Agilent Technologies) coupled to ESI-TOF Agilent 6530 (Agilent Technologies) with Agilent Jet Stream Technology. Samples were separated on a Waters ACQUITY UPLC CSH Phenyl-Hexyl (100 × 2.1, 130 Å, 1.7 μm) at a flow rate 0.3 ml/min. […] The mass spectrometry instrument was operated in a negative ion mode with a voltage of +3.00 kV applied to the capillary. The temperature, the flow rate of the nitrogen drying gas, the pressure of the nitrogen nebulizing gas, and the flow rate of the sheath gas were set at 325°C, 10 l/min, 40 psi, 390°C, and 11 l/min, respectively. Results are represented as a percentage of a compound remaining in spiked human plasma."}, "[3]": {"test": "Plasma stability, rat plasma", "format": "in vitro ADME", "settings": "rat, plasma"}, "[4]": {"biological_target": "T2, GluN1/GluN2D receptors (Rattus norvegicus, UniProt P35439+Q62645)", "T2 construct": "expressed in transfected cells; host or cells: HEK293", "T2 sequence (Q62645 28-1323, other chains not shown)": "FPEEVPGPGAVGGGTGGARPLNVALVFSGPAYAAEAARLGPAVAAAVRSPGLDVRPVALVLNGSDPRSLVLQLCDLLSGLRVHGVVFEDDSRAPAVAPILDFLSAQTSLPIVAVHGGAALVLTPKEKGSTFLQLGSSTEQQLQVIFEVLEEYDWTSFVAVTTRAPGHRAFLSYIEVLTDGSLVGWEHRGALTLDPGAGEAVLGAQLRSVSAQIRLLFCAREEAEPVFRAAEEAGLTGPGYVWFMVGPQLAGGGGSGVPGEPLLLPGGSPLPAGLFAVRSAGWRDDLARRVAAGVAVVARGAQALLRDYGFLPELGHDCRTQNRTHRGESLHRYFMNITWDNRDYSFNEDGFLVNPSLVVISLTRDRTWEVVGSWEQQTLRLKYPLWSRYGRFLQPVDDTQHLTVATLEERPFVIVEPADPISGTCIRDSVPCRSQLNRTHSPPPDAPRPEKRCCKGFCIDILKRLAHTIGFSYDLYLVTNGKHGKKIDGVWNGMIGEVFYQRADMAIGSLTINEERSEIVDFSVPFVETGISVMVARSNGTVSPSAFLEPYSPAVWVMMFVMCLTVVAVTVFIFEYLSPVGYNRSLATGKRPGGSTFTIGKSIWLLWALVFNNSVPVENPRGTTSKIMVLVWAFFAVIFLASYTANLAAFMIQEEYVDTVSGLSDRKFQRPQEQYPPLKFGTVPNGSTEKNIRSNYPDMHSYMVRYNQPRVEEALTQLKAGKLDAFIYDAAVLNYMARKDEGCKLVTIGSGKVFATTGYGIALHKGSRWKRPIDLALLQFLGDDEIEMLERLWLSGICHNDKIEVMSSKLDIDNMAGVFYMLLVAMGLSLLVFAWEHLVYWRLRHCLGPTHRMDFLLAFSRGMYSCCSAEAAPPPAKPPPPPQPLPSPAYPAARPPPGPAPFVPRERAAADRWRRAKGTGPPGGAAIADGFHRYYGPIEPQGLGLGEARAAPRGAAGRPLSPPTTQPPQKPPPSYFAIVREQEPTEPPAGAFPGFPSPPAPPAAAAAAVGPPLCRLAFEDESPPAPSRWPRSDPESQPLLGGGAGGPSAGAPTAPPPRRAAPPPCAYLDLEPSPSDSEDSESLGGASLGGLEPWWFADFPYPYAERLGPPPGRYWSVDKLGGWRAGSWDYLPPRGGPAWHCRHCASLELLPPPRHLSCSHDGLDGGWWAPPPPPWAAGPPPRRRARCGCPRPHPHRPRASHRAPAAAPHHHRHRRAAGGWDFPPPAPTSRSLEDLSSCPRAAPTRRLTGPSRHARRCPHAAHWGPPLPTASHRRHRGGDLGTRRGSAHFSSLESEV", "test": "Patch-clamp inhibition of GluN1/GluN2D receptors in transfected HEK293 cells", "format": "cell-based", "settings": "1 mM glutamate and 10 μM glycine", "description": "(§1) FIGURE 7 Concentration–response properties of compound 6 on GluN1/GluN2A-D receptors. (A) Examples of traces obtained from HEK293 cells transfected with cDNAs encoding GluN1/GluN2A, GluN1/GluN2B, GluN1/GluN2C, and GluN1/GluN2D receptors. Agonists (1 mM glutamate and 10 μM glycine) were applied alone and simultaneously with compound 6 (10 μM) to evaluate the inhibitory effect of compound 6 on NMDAR mediated currents (duration of glutamate and steroid application is indicated by filled and open bars, respectively). (B) Concentration–response curves for the compound 6 effect at GluN1/GluN2A-D receptors. Data points are averaged values of normalized responses from at least four HEK293 cells. Error bars represent SD.\n(§2) Electrophysiological experiments were performed on HEK293 cells transfected with plasmids encoding rat GluN1-1a/GluN2A-D and GFP genes as described previously, ([Petrovic et al., 2005]; [Cais et al., 2008]; [Korinek et al., 2010]) or on primary hippocampal neurons prepared from P0–P1 rats, plated on collagen/poly-D-lysine-coated glass coverslips at a density of ∼50,000 cells/cm^2, and grown in Neurobasal A medium with B27 Supplement (Gibco). Agonist-induced responses were voltage-clamped at a holding potential of −60 mV. […] Agonist-induced responses were low-pass filtered at 2 kHz, digitally sampled at 5 kHz, and analyzed with pClamp software version 10.5 (Molecular Devices). […]"}, "[5]": {"biological_target": "T3, GluN1/GluN2A receptors (Rattus norvegicus, UniProt P35439+Q00959)", "T3 construct": "expressed in transfected cells; host or cells: HEK293", "T3 sequence (Q00959 23-1464, other chains not shown)": "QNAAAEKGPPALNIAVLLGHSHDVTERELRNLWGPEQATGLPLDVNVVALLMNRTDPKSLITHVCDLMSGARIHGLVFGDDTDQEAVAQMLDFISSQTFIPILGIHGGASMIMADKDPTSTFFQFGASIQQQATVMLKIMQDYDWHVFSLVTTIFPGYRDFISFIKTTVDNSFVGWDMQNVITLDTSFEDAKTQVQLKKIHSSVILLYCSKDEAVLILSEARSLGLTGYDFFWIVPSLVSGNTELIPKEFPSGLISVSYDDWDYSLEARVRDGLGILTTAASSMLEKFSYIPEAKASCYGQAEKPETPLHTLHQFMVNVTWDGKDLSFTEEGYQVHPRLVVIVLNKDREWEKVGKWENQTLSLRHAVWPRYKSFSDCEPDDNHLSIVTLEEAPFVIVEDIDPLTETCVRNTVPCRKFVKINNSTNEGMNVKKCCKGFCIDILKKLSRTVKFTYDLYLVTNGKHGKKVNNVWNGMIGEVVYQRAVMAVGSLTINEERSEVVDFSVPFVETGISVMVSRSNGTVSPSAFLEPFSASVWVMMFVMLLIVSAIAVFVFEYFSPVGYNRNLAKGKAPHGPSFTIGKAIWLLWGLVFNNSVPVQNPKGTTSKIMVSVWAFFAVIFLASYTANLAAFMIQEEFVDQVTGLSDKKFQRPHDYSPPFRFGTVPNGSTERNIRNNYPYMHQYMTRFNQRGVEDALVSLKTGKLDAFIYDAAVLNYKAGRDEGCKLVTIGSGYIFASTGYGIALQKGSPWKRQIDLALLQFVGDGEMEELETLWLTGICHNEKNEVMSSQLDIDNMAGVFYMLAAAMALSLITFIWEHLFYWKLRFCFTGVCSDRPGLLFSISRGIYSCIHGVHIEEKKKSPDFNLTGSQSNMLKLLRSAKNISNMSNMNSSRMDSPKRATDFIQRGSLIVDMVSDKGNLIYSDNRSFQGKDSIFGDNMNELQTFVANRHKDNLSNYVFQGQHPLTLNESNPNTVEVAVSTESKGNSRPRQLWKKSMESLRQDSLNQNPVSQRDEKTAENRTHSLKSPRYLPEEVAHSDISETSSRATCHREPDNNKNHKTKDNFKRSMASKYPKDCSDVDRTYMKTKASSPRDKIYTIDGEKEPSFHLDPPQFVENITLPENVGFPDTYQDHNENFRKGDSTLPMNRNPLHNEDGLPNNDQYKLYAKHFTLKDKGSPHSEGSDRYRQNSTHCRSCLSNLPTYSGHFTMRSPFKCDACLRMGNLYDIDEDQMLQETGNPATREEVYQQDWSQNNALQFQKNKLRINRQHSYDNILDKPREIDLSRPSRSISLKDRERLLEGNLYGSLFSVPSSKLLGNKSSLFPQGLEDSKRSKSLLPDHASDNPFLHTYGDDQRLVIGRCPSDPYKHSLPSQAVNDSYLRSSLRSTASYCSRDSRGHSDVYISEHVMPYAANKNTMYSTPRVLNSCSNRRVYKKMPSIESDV", "test": "Patch-clamp inhibition of GluN1/GluN2A receptors in transfected HEK293 cells", "format": "cell-based", "settings": "1 mM glutamate and 10 μM glycine", "description": "as §1, §2"}, "[6]": {"biological_target": "T4, GluN1/GluN2C receptors (Rattus norvegicus, UniProt P35439+Q00961)", "T4 construct": "expressed in transfected cells; host or cells: HEK293", "test": "Patch-clamp inhibition of GluN1/GluN2C receptors in transfected HEK293 cells", "format": "cell-based", "settings": "1 mM glutamate and 10 μM glycine", "description": "as §1, §2"}}, "note": "Like-named read-outs stand apart in the source and are kept apart here.", "data": [{"molecule": "C[C@@]12CCC[C@H]1[C@@H]1CC[C@@H]3C[C@H](NC(=O)[C@@H](N)CC(=O)O)CC[C@]3(C)[C@H]1CC2", "note": "[Compound 6, (S)-3-amino-4-(((3R,5R,8S,9S,10S,13S,14S)-10,13-dimethylhexadecahydro-1H-cyclopenta[a]phenanthren-3-yl)amino)-4-oxobutanoic acid]", "values": [{"measurement": "ΔGexp", "setting": "[1]", "value": -30.5, "unit": "kJ/mol"}, {"measurement": "h ± SD (apparent Hill coefficient)", "setting": "[1]; 1 mM glutamate and 10 μM glycine", "value": "1.3 ± 0.1"}, {"measurement": "IC50", "setting": "[1]; as repeated in Table 2, read-out: IC50", "value": 4.8, "unit": "µM"}, {"measurement": "IC50", "setting": "[1]; concentration-response, 1 mM glutamate and 10 μM glycine, read-out: IC50 ±SD", "value": "7.4 ± 0.8", "unit": "µM"}, {"measurement": "IC50", "setting": "[1]; current responses to glutamate, HEK293, IC50 from single steroid dose, Hill coefficient fixed at 1.2, read-out: IC50 ± SD", "value": "4.8 ± 0.9", "unit": "µM"}, {"measurement": "remaining at 8 h, 42.1 μg/mL", "setting": "[2]", "value": 100, "unit": "%"}, {"measurement": "remaining at 8 h, 42.1 μg/mL", "setting": "[3]", "value": 97, "unit": "%"}, {"measurement": "h ± SD (apparent Hill coefficient)", "setting": "[4]", "value": "1.6 ± 0.3"}, {"measurement": "IC50", "setting": "[4]; concentration-response", "value": "8.4 ± 1", "unit": "µM"}, {"measurement": "h ± SD (apparent Hill coefficient)", "setting": "[5]", "value": "1.3 ± 0.1"}, {"measurement": "IC50", "setting": "[5]; concentration-response", "value": "6.5 ± 0.7", "unit": "µM"}, {"measurement": "h ± SD (apparent Hill coefficient)", "setting": "[6]", "value": "1.6 ± 0.3"}, {"measurement": "IC50", "setting": "[6]; concentration-response", "value": "7.3 ± 0.8", "unit": "µM"}]}]}
